Eleven compounds from patent publication US20100099614A1, “Antimicrobial Peptides and Methods of Use” (priority 2008, published 2010) can be followed below.

One series relates to human erythrocytes. Briefly: Hemolytic activity (MHC), Protocol A. It is filed as cell-based. How it is done:
Hemoglobin release was determined spectrophotometrically at 562 nm.
In some experiments the hemolytic titer was determined as the highest 2-fold dilution of peptide that caused hemoglobin release.

For the next series, the system named is Gram-negative bacteria. Kind of series: Antibacterial activity (MIC), microtiter dilution. The conditions noted are these: for MIC: against Gram-negative bacteria. It is filed as cell-based. How it is done: MICs were determined by a standard microtiter dilution method in Mueller Hinton Broth (MHB). Serial dilutions of the 10× compound were added to the microtiter plates in a volume of 10 μL followed by 90 μL of bacteria for an inoculum of 5×10^5 colony-forming units (CFU)/mL. The plates were incubated at 37° C. for 24 h, and the MICs were determined as the lowest peptide concentration that inhibited growth. […]
Alternatively; minimal inhibitory concentrations were determined using a standard microtiter dilution method in a Mueller-Hinton (MH) medium. Briefly, cells were grown overnight at 37° C. in MH broth and diluted in the same medium. Serial dilutions of the peptides were added to the microtiter plates in a volume of 100 μl followed by 10 μl of bacteria for an initial cell concentration of 1×10^5 CFU/ml. Plates were incubated at 37° C. for 24 hours and MICs determined as the lowest peptide concentration that inhibited growth.

Another series deals with Gram-positive bacteria. The conditions noted are these: gram-positive bacteria, geometric mean MIC.
Series [1] is described as follows: Peptide hydrophobicity by RP-HPLC retention. Format: physicochemical. The conditions noted are these: 80° C.; for change in hydrophobicity (RP-HPLC retention) relative to PVL: polar face substitution. As to the method: Peptide Synthesis and Purification—Syntheses of the peptides were carried out by solid-phase peptide synthesis using t-butyloxycarbonyl chemistry and MBHA (4-methylbenzhydrylamine) resin (0.97 mmol/g), followed by cleavage of the peptide from the resin as described previously (117-119). However, it is understood in the art that there are other suitable instruments and methods for automated or manual peptide synthesis that could be employed to produce the peptides described herein. Peptide purification was performed by reversed-phase high-performance liquid chromatography (RP-HPLC) on a Zorbax 300 SB-C8 column (250×9.4 mm I.D.; 6.5 μm particle size, 300 Å pore size; Agilent Technologies, Little Falls, Del.) with a linear AB gradient (0.1% acetonitrile/min) at a flow rate of 2 mL/min, where eluent A was 0.2% aqueous trifluoroacetic acid (TFA), pH 2, and eluent B was 0.2% TFA in acetonitrile, where the shallow 0.1% acetonitrile/min gradient started 12% below the acetonitrile concentration required to elute the peptide on injection of analytical sample using a gradient of 1% acetonitrile/min (113). The purity of the peptides was verified by analytical RP-HPLC as described below and further characterized by mass spectrometry and amino acid analysis. Crude and purified peptides were analyzed on an Agilent 1100 series liquid chromatograph. Runs were performed on a Zorbax 300 SB-C8 column (150×2.1 mm I.D.; 5 μm particle size, 300 Å pore size) from Agilent Technologies using a linear AB gradient (1% acetonitrile/min) and a flow rate of 0.25 mL/min, where eluent A was 0.2% aqueous TFA, pH 2, and eluent B was 0.2% TFA in acetonitrile.
Analytical RP-HPLC of Peptides—Peptides were analyzed on an Agilent 1100 series liquid chromatograph (Little Falls, Del.). Runs were performed on a Zorbax 300 SB-C8 column (150×2.1 mm I.D.; 5 μm particle size, 300 Å pore size) from Agilent Technologies using linear AB gradient (1% acetonitrile/min) and a flow rate of 0.25 ml/min, where solvent A was 0.05% aqueous TFA, pH 2 and solvent B was 0.05% TFA in acetonitrile. Temperature profiling analyses were performed in 3° C. increments, from 5° C. to 80° C.

Converted amounts (≈) assume the structure as drawn. “Also recorded” adds a separate entry of the source. Square brackets hold non-standard residues; d marks the D form. Ends that are not written are not given here. Peptide text beside a SMILES is read from it. Some results are limits rather than exact numbers.

In the case of `CC[C@H](C)[C@H](NC(=O)[C@H](C)NC(=O)[C@H](CCCCN)NC(=O)[C@H](CC(C)C)NC(=O)[C@H](C)NC(=O)[C@@H](NC(=O)[C@H](Cc1c[nH]cn1)NC(=O)[C@H](CC(C)C)NC(=O)[C@@H](NC(=O)[C@@H](NC(=O)[C@H](CCCCN)NC(=O)[C@@H](C)NC(=O)[C@H](C)NC(=O)[C@H](CO)NC(=O)[C@H](CCCCN)NC(=O)[C@H](Cc1ccccc1)NC(=O)[C@@H](NC(=O)[C@H](CCCCN)NC(=O)[C@H](CC(C)C)NC(=O)[C@H](Cc1ccccc1)NC(=O)[C@H](CO)NC(=O)[C@H](CCCCN)NC(=O)[C@H](Cc1c[nH]c2ccccc12)NC(=O)[C@H](CCCCN)NC(C)=O)[C@@H](C)O)[C@@H](C)O)C(C)C)[C@@H](C)O)C(=O)N[C@@H](CO)C(=O)N[C@@H](CO)C(N)=O` [NAD] (HELM PEPTIDE1{[ac].K.W.K.S.F.L.K.T.F.K.S.A.[dA].K.T.V.L.H.T.A.L.K.A.I.S.S.[am]}$$$$V2.0), the “fold decrease in hemolytic activity relative to L-diastereomer” value in the series with human erythrocytes stood at 8 fold. The “minimal hemolytic concentration (MHC)” value in the series with human erythrocytes (red cells of human, 12 h) turned out to be 250 µg/mL. As usually defined, the MIC is the least concentration at which growth counts as inhibited. A higher MIC goes with a need for much substance. The compound `CC[C@H](C)[C@H](NC(=O)[C@H](C)NC(=O)[C@H](CCCCN)NC(=O)[C@H](CC(C)C)NC(=O)[C@H](C)NC(=O)[C@@H](NC(=O)[C@H](Cc1cnc[nH]1)NC(=O)[C@H](CC(C)C)NC(=O)[C@@H](NC(=O)[C@@H](NC(=O)[C@H](CCCCN)NC(=O)[C@H](CCCCN)NC(=O)[C@H](C)NC(=O)[C@H](CO)NC(=O)[C@H](CCCCN)NC(=O)[C@H](Cc1ccccc1)NC(=O)[C@@H](NC(=O)[C@H](CCCCN)NC(=O)[C@H](CC(C)C)NC(=O)[C@H](Cc1ccccc1)NC(=O)[C@H](CO)NC(=O)[C@H](CCCCN)NC(=O)[C@H](Cc1c[nH]c2ccccc12)NC(=O)[C@H](CCCCN)NC(C)=O)[C@@H](C)O)[C@@H](C)O)C(C)C)[C@@H](C)O)C(=O)N[C@@H](CO)C(=O)N[C@@H](CO)C(N)=O` [NKL] registered an MIC against Gram-negative bacteria of 3.1 µg/mL (≈ 1.04 µM). In addition, the “fold decrease in hemolytic activity relative to V681” value in the series with human erythrocytes is listed as over 32 fold. Also, the “minimal hemolytic concentration (MHC)” value with human erythrocytes (human erythrocytes) was “undetectable level; also recorded: no detectable hemolytic activity”. As to `CC[C@H](C)[C@H](NC(=O)[C@H](C)NC(=O)[C@H](CCCCN)NC(=O)[C@H](CC(C)C)NC(=O)[C@H](C)NC(=O)[C@@H](NC(=O)[C@H](Cc1c[nH]cn1)NC(=O)[C@H](CC(C)C)NC(=O)[C@@H](NC(=O)[C@@H](NC(=O)[C@H](CCCCN)NC(=O)[C@@H](NC(=O)[C@H](C)NC(=O)[C@@H](CO)NC(=O)[C@H](CCCCN)NC(=O)[C@H](Cc1ccccc1)NC(=O)[C@@H](NC(=O)[C@H](CCCCN)NC(=O)[C@H](CC(C)C)NC(=O)[C@H](Cc1ccccc1)NC(=O)[C@H](CO)NC(=O)[C@H](CCCCN)NC(=O)[C@H](Cc1c[nH]c2ccccc12)NC(=O)[C@H](CCCCN)NC(C)=O)[C@@H](C)O)C(C)C)[C@@H](C)O)C(C)C)[C@@H](C)O)C(=O)N[C@@H](CO)C(=O)N[C@@H](CO)C(N)=O` [PSD] (HELM PEPTIDE1{[ac].K.W.K.S.F.L.K.T.F.K.[dS].A.V.K.T.V.L.H.T.A.L.K.A.I.S.S.[am]}$$$$V2.0; N-terminus and C-terminus assumed), the “improvement in antimicrobial activity compared to V681” value in the series on Gram-positive bacteria was 2.7 fold. In the case of `CC[C@H](C)[C@H](NC(=O)[C@H](C)NC(=O)[C@H](CCCCN)NC(=O)[C@H](CC(C)C)NC(=O)[C@H](C)NC(=O)[C@@H](NC(=O)[C@H](Cc1c[nH]cn1)NC(=O)[C@H](CC(C)C)NC(=O)[C@@H](NC(=O)[C@@H](NC(=O)[C@H](CCCCN)NC(=O)[C@@H](NC(=O)[C@H](C)NC(=O)[C@H](NC(=O)[C@H](CCCCN)NC(=O)[C@H](Cc1ccccc1)NC(=O)[C@@H](NC(=O)[C@H](CCCCN)NC(=O)[C@H](CC(C)C)NC(=O)[C@H](Cc1ccccc1)NC(=O)[C@H](CO)NC(=O)[C@H](CCCCN)NC(=O)[C@H](Cc1c[nH]c2ccccc12)NC(=O)[C@H](CCCCN)NC(C)=O)[C@@H](C)O)C(C)C)C(C)C)[C@@H](C)O)C(C)C)[C@@H](C)O)C(=O)N[C@@H](CO)C(=O)N[C@@H](CO)C(N)=O` [PVD] (HELM PEPTIDE1{[ac].K.W.K.S.F.L.K.T.F.K.[dV].A.V.K.T.V.L.H.T.A.L.K.A.I.S.S.[am]}$$$$V2.0), the “fold decrease in hemolytic activity relative to L-diastereomer” value in the series with human erythrocytes was determined as 16 fold. Moreover, in the series on human erythrocytes (red cells of human, 12 h), the “minimal hemolytic concentration (MHC)” value is 125 µg/mL. For the compound Ac-KWKSFLKTFKSAAKTVLHTALKAISS-NH2 [NAL], the “minimal hemolytic concentration (MHC)” value in the series on human erythrocytes (red cells of human, 12 h) is 31.2 µg/mL. Consider Ac-KWKSFLKTFKSALKTVLHTALKAISS-NH2 [NLL], for which the MIC against Gram-negative bacteria was determined as 12.7 µg/mL. In the series with human erythrocytes (red cells of human, 12 h), the “minimal hemolytic concentration (MHC)” value came to 7.8 µg/mL. Regarding Ac-KWKSFLKTFKVAVKTVLHTALKAISS-NH2 [PVL], the “minimal hemolytic concentration (MHC)” value with human erythrocytes (red cells of human, 12 h) worked out at 7.8 µg/mL. As to “NSL: V681 analog, L-Ser at position 13 (non-polar face) (KWKSFLKTFKSASKTVLHTALKAISS)”, the “change in hydrophobicity (RP-HPLC retention) relative to NVL” value in series [1] (non-polar face substitution) is -8.21 min. “PAL: V681 analog, L-Ala at position 11 (polar face) (KWKSFLKTFKAAVKTVLHTALKAISS)”: the “change in hydrophobicity (RP-HPLC retention) relative to PVL” value in series [1] is recorded as “+0.45 min”.

As for “PKD: V681 analog, D-Lys at position 11 (KWKSFLKTFK[dK]AVKTVLHTALKAISS-NH2)”, the “improvement on the average MIC value compared to V681” value in the series with Gram-negative bacteria (geometric mean of 6 gram-negative strains) came to 3.4 fold. Take “PKL: V681 analog, L-Lys at position 11 (polar face) (KWKSFLKTFKKAVKTVLHTALKAISS)”: in series [1], the “change in hydrophobicity (RP-HPLC retention) relative to PVL” value was -2.29 min.
